Measured values published in patent publication US7977317B2, “Compositions and methods for modulating blood-brain barrier transport” (Raptor Pharmaceutical Inc., priority 2001, dated 2011).

What was measured:
[1] = tested on: BBCEC monolayers; assay: Accumulation of ligands in BBCEC monolayers; assay type: cell-based, bovine; details: FIG. 7
Experimental: FIG. 7 illustrates the results of experiments where the ligands p97, Lf and Tf were heated or not heated prior to the binding study. In all cases, binding experiments were conducted in the transwell apparatus as described previously, with the exception that binding was conducted at either 4° C. or at 37° C. For the 37° C. trial, a separate experiment was conducted where the ligand was boiled for 30 mins then rapidly cooled prior to administration on the transwell plates.
FIG. 13 illustrates the transcytosis and accumulation of p97 and transferrin in BBCEC monolayers. FIG. 13a, Transcytosis experiments were performed at 37° C. (solid bars) or 4° C. (white bars). [^125I]-p97 or bovine [^125I]-holo-transferrin (1 mg/ml) was added to the upper side of the cell-covered filter. At the end of the experiment, radiolabelled proteins were measured in the lower chamber of each well by TCA precipitation (n=4). […] The surface plasmon resonance response obtained for native p97 and boiled p97 was plotted (in relative units (RU)) as a function of time; FIG. 13c, The accumulation of both proteins into BBEC cells were also measured. […] Accumulation of both denatured proteins (grey bars) was also measured at 37° C. Filters were then removed, and the radioactivity associated with the cells was quantified (n=3). […]

[2] = Brain uptake one hour after i.v. injection; assay type: in vivo; details: mice, one hour after i.v. injection of [125I]-protein (FIG. 11a)
Experimental: FIG. 11 examines the accumulation and transcytosis of p97. FIG. 11a, of [^125I]-p97, [^125I]-BSA and [^125I]-holo-transferrin one hour after i.v. injection. The radioactivity in brain was compared between the three compounds. (n=3); FIG. 11b, Accumulation of p97 and transferrin into the mouse brain parenchyma. In situ brain perfusion was performed with human [^125I]-p97 or [^125I]-holo-transferrin at a final concentration of 10 nM via a catheter inserted in the right common carotid artery. The volume of distribution (VD) of [^125I]-proteins were obtained in the whole brain homogenate (white bars), in brain capillaries (solid bars) and in brain parenchyma (hatched bars) after isolation of the right hemisphere and capillary depletion. Results were obtained for p97 (n=10) and for holo-transferrin (n=6); FIG. 11c, Transcytosis of p97 across BBCEC monolayers. Transcytosis experiments were performed 37° C. (open circles) and 4° C. (closed circles) with BBCEC monolayers. […] Apical-to-basal and basal-to-apical transport of [^125I]-p97 (25 nM) was measured for 2 hrs at 37° C. At the end of the experiment, [^125I]-p97 was assessed in the lower or upper chambers of each well by TCA precipitation (n=4).
A. Brain uptake and in situ brain perfusion. […] The serum and brain samples were collected and the levels of radioactivity were measured. […]

[3] = tested on: BBCEC monolayers; assay: Transcytosis across BBCEC monolayers (in vitro BBB model); assay type: cell-based, bovine
From the text: FIG. 10 assesses the ability of several agents to interfere with p97 transyctosis. FIG. 10a, transcytosis of I125-P97 was compared in the presence of cold p97 (5 micromolar), Lf (5 micromolar), and Tf (5 micromolar). […] FIG. 10c, RAP, a known poly-peptide inhibitor of the LDL-Receptor family was applied to the cells (25 micrograms/ml).
FIG. 11 examines the accumulation and transcytosis of p97. FIG. 11a, of [^125I]-p97, [^125I]-BSA and [^125I]-holo-transferrin one hour after i.v. injection. The radioactivity in brain was compared between the three compounds. (n=3); FIG. 11b, Accumulation of p97 and transferrin into the mouse brain parenchyma. In situ brain perfusion was performed with human [^125I]-p97 or [^125I]-holo-transferrin at a final concentration of 10 nM via a catheter inserted in the right common carotid artery. The volume of distribution (VD) of [^125I]-proteins were obtained in the whole brain homogenate (white bars), in brain capillaries (solid bars) and in brain parenchyma (hatched bars) after isolation of the right hemisphere and capillary depletion. Results were obtained for p97 (n=10) and for holo-transferrin (n=6); FIG. 11c, Transcytosis of p97 across BBCEC monolayers. Transcytosis experiments were performed 37° C. (open circles) and 4° C. (closed circles) with BBCEC monolayers. [^125I]-p97 (1 mg/ml) was added to the upper side of the cell-covered filter. One representative experiment is shown (n=4); FIG. 11d, Preferential transport of p97 across the BBCEC monolayers. Apical-to-basal and basal-to-apical transport of [^125I]-p97 (25 nM) was measured for 2 hrs at 37° C. At the end of the experiment, [^125I]-p97 was assessed in the lower or upper chambers of each well by TCA precipitation (n=4).
FIG. 13 illustrates the transcytosis and accumulation of p97 and transferrin in BBCEC monolayers. FIG. 13a, Transcytosis experiments were performed at 37° C. (solid bars) or 4° C. (white bars). [^125I]-p97 or bovine [^125I]-holo-transferrin (1 mg/ml) was added to the upper side of the cell-covered filter. At the end of the experiment, radiolabelled proteins were measured in the lower chamber of each well by TCA precipitation (n=4). Controls were also performed at 37° C. with denatured [^125I]-p97 or bovine [^125I]-holo-transferrin boiled for 30 min (grey bars) (n=2); FIG. 13b, Biospecific interaction analysis was performed with native or boiled p97 for the indicated times. MAb L235 (5 μg) was immobilized on a sensor chip (SM5) using standard procedures incorporating NHS, EDC and ethanolamine. Native and boiled p97 (5 to 30 min) diluted at 1 mg/ml in Ringer/Hepes was cooled and injected into the BIAcore. The surface plasmon resonance response obtained for native p97 and boiled p97 was plotted (in relative units (RU)) as a function of time; FIG. 13c, The accumulation of both proteins into BBEC cells were also measured. Briefly, after incubation at 37° C. (solid bars) or 4° C. (white bars) with either [^125I]-protein, cells were washed four times with cold PBS. Accumulation of both denatured proteins (grey bars) was also measured at 37° C. Filters were then removed, and the radioactivity associated with the cells was quantified (n=3).
FIG. 14 illustrates the stability of p97 and integrity of the BBCEC monolayers following p97 transcytosis. FIG. 14a, Transcytosis experiments were performed at 37° C. and 4° C. by adding p97 (1 mg/ml) to the upper compartment. At the end of the experiment, 50 μl from each lower chamber was used for SDS-polyacrylamide gel electrophoresis. After electrophoresis, the gels were stained with Coomassie Blue. A standard curve was also made with known amounts of recombinant p97 (0-2 μg); FIG. 14b. The gels were dried and scanned to quantify the amount of intact p97 that crossed the BBCEC monolayers at 37° C. and 4° C. (n=3); FIG. 14c, Effect of p97 on sucrose permeability of BBCE cell monolayers co-cultured with astrocytes. […]

transferrin: transferrin (Tf), iron-binding serum protein used as comparator and competitor
Accumulation in BBB model cells [1]: very little accumulation
Brain/serum ratio [2]: 0.008
Effect of heat-denaturation on passage through BBCEC monolayers ([3]; boiled 30 min, 37° C. (FIG. 13a)): reduced the passage
Effect on transcytosis of 125I-p97 ([3]; competitor 5 micromolar (FIG. 10a, 10b)): only the cold p97 successfully reduced
